Measurements: PubChem BioAssay AID1259411 (Chemical Carcinogenesis Research Information System (CCRIS), 2018)
Calls of active or inactive are those of the source. The rule behind the calls is not given here.

Test system: rodent carcinogenicity bioassays, tumor incidence
Experiment: CCRIS carcinogenicity studies
Outline: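 NCI-built, expert-reviewed records of carcinogenicity and related test outcomes (mutagenicity, tumor promotion/inhibition) compiled from published and report sources, historical span 1985-2011, not updated.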

## O=[N+]([O-])c1ccc2ccc3cccc4ccc1c2c34
Species: HAMSTER, Strain/Sex: SYRIAN/MALE, Route: INTRATRACHEAL, Dose: 0, 1, 2 MG ADSORBED ONTO CARBON CARRIER PARTICLES IN 0.2 ML SALINE 1/WK FOR 92 WK (STUDY DURATION: 92 WK), Dose: 0, 1, 2 MG ADSORBED ONTO CARBON CARRIER PARTICLES IN 0.2 ML SALINE 1/WK FOR 92 WK (STUDY DURATION: 92 WK)
  carcinogen call: inactive; negative
Species: HAMSTER, Strain/Sex: SYRIAN/MALE, Route: INTRATRACHEAL, Dose: 0, 1, 2 MG ADSORBED ONTO CARBON CARRIER PARTICLES IN 0.2 ML SALINE 2/WK FOR 92 WK (STUDY DURATION: 92 WK), Dose: 0, 1, 2 MG ADSORBED ONTO CARBON CARRIER PARTICLES IN 0.2 ML SALINE 2/WK FOR 92 WK (STUDY DURATION: 92 WK)
  carcinogen call: inactive; negative
Species: MOUSE, Strain/Sex: B6C3F1/FEMALE, Route: INTRAPERITONEAL, Dose: 0, 7 NMOL (TOTAL DOSE), 1/7, 2/7 AND 4/7 OF THE TOTAL DOSE ADMINISTERED WITHIN 24 HR OF BIRTH AND AT 8 AND 15 D OF AGE
  carcinogen call: inactive; negative
Species: MOUSE, Strain/Sex: B6C3F1/MALE, Route: INTRAPERITONEAL, Dose: 0, 7 NMOL (TOTAL DOSE), 1/7, 2/7 AND 4/7 OF THE TOTAL DOSE ADMINISTERED WITHIN 24 HR OF BIRTH AND AT 8 AND 15 D OF AGE
  carcinogen call: inactive; negative
Species: MOUSE, Strain/Sex: BALB/MALE, Route: SUBCUTANEOUS, Dose: 0, 0.1 MG IN DMSO 1/WK FOR 20 WK (STUDY DURATION: 60 WK)
  carcinogen call: inactive; negative
Species: MOUSE, Strain/Sex: ICR/FEMALE, Route: INTRAPERITONEAL, Dose: 0, 21 UG TOTAL DOSE (3 UG/5 µL, 6 UG/10 µL, 12 UG/20 µL DMSO ON DAYS 1,8 AND 15), 105 UG TOTAL DOSE (15 UG/5 µL, 30 UG/1, Dose: 0, 21 UG TOTAL DOSE (3 UG/5 µL, 6 UG/10 µL, 12 UG/20 µL DMSO ON DAYS 1,8 AND 15), 105 UG TOTAL DOSE (15 UG/5 µL, 30 UG/1
  carcinogen call: inactive; negative
Species: MOUSE, Strain/Sex: ICR/MALE, Route: INTRAPERITONEAL, Dose: 0, 21 UG TOTAL DOSE (3 UG/5 µL, 6 UG/10 µL, 12 UG/20 µL DMSO ON DAYS 1,8 AND 15), 105 UG TOTAL DOSE (15 UG/5 µL, 30 UG/1, Dose: 0, 21 UG TOTAL DOSE (3 UG/5 µL, 6 UG/10 µL, 12 UG/20 µL DMSO ON DAYS 1,8 AND 15), 105 UG TOTAL DOSE (15 UG/5 µL, 30 UG/1
  carcinogen call: inactive; negative
Species: MOUSE, Strain/Sex: STRAIN-A/FEMALE, Route: INTRAPERITONEAL, Dose: 0, 0.71, 2.14, 6.44 MMOL/KG IN 0.1 ML TRIOCTANOIN TOTAL DOSE ADMINISTERED AS 3 INJECTIONS/WK FOR 17 INJECTIONS (STUDY DU, Dose: 0, 0.71, 2.14, 6.44 MMOL/KG IN 0.1 ML TRIOCTANOIN TOTAL DOSE ADMINISTERED AS 3 INJECTIONS/WK FOR 17 INJECTIONS (STUDY DU, Tumor Site: Type of Lesion: LUNG: ADENOMA
  carcinogen call: active; positive
Species: MOUSE, Strain/Sex: STRAIN-A/MALE, Route: INTRAPERITONEAL, Dose: 0, 0.71, 2.14, 6.44 MMOL/KG IN 0.1 ML TRIOCTANOIN TOTAL DOSE ADMINISTERED AS 3 INJECTIONS/WK FOR 17 INJECTIONS (STUDY DU, Dose: 0, 0.71, 2.14, 6.44 MMOL/KG IN 0.1 ML TRIOCTANOIN TOTAL DOSE ADMINISTERED AS 3 INJECTIONS/WK FOR 17 INJECTIONS (STUDY DU, Tumor Site: Type of Lesion: LUNG: ADENOMA
  carcinogen call: active; positive
Species: RAT, Strain/Sex: F344/DUCRJ FISCHER/MALE, Route: SUBCUTANEOUS, Dose: 2 MG TWICE WEEKLY FOR 10 WK (STUDY DURATION: 52 WK), Tumor Site: Type of Lesion: INTEGUMENTARY SYSTEM: FIBROUS HISTIOCYTOMAS
  carcinogen call: active; positive
Species: RAT, Strain/Sex: F344/FEMALE, Route: SUBCUTANEOUS, Dose: 0, 40 UMOL (TOTAL DOSE) ADMINISTERED OVER 8 WK BEGINNING WITHIN 24 HR OF BIRTH (STUDY DURATION: 86 WK), Tumor Site: Type of Lesion: HEMATOPOIETIC SYSTEM: LEUKEMIA
  carcinogen call: active; positive
Species: RAT, Strain/Sex: F344/MALE, Route: SUBCUTANEOUS, Dose: 0, 0.2, 2 MG 2/WK FOR 10 WK (STUDY DURATION: 650 D), Dose: 0, 0.2, 2 MG 2/WK FOR 10 WK (STUDY DURATION: 650 D)
  carcinogen call: inactive; negative
Species: RAT, Strain/Sex: F344/MALE, Route: SUBCUTANEOUS, Dose: 2 MG IN DMSO 2/WK FOR 10 WK, Tumor Site: Type of Lesion: INJECTION SITE: MALIGNANT FIBROUS HISTIOCYTOMA
  carcinogen call: active; positive
Species: RAT, Strain/Sex: SPRAGUE-DAWLEY/FEMALE, Route: SUBCUTANEOUS, Dose: 0, 50, 100 UMOL/KG IN DMSO 1/WK FOR 8 WK (STUDY DURATION: 62 WK), Dose: 0, 50, 100 UMOL/KG IN DMSO 1/WK FOR 8 WK (STUDY DURATION: 62 WK), Tumor Site: Type of Lesion: INJECTION SITE: MALIGNANT FIBROUS HISTIOCYTOMA, MAMMARY GLAND: FIBROADENOMA, ADENOCARCINOMA
  carcinogen call: active; positive
Species: RAT, Strain/Sex: SPRAGUE-DAWLEY/MALE, Route: SUBCUTANEOUS, Dose: 0, 50, 100 UMOL/KG IN DMSO 1/WK FOR 8 WK (STUDY DURATION: 62 WK), Dose: 0, 50, 100 UMOL/KG IN DMSO 1/WK FOR 8 WK (STUDY DURATION: 62 WK), Tumor Site: Type of Lesion: INJECTION SITE: MALIGNANT FIBROUS HISTIOCYTOMA
  carcinogen call: active; positive
Species: RAT, Strain/Sex: STRAIN CD/FEMALE, Route: INTRAGASTRIC, Dose: 0, 10 UMOL IN DMSO 3/WK FOR 4 WK (TOTAL DOSE: 16 UMOL/RAT) (STUDY DURATION: 78 WK)
  carcinogen call: inactive; negative
Species: RAT, Strain/Sex: STRAIN CD/FEMALE, Route: INTRAPERITONEAL, Dose: 0, 10 UMOL IN DMSO 3/WK FOR 4 WK (TOTAL DOSE: 16 UMOL/RAT) (STUDY DURATION: 78 WK), Tumor Site: Type of Lesion: MAMMARY GLAND: ADENOCARCINOMA, FIBROADENOMA
  carcinogen call: active; positive
Species: RAT, Strain/Sex: STRAIN CD/FEMALE, Route: INTRAPERITONEAL, Dose: 0, 10 UMOL IN DMSO 3/WK FOR 4 WK (TOTAL DOSE: 16 UMOL/RAT) (STUDY DURATION: 78 WK), Tumor Site: Type of Lesion: PITUITARY GLAND: CARCINOMA
  carcinogen call: active; positive
Species: RAT, Strain/Sex: STRAIN-CD/FEMALE, Route: GAVAGE, Dose: 0, 50 UMOL IN 0.5 ML TRIOCTANOIN 1/WK FOR 8 WK (STUDY DURATION: 49 WK), Tumor Site: Type of Lesion: MAMMARY GLAND: FIBROADENOMA
  carcinogen call: active; positive
Species: RAT, Strain/Sex: STRAIN-CD/FEMALE, Route: INJECTION, Dose: 0, 0.1 ML OF 20.3 UMOL/ML DMSO INJECTED INTO MAMMARY TISSUE OF THE 3 LEFT THORACIC NIPPLES FOLLOWED THE NEXT D BY SIMILA
  carcinogen call: inactive; negative
Species: RAT, Strain/Sex: STRAIN-CD/FEMALE, Route: INJECTION, Dose: 0, 0.1 ML OF A 20.3 UMOL/ML SOLUTION IN DMSO INJECTED INTO MAMMARY TISSUE UNDERLYING 3 LEFT THORACIC NIPPLES THE FOLLOWI
  carcinogen call: inactive; negative
Species: RAT, Strain/Sex: STRAIN-CD/FEMALE, Route: INTRAPERITONEAL, Dose: 0, 67 UMOL/KG BW IN DMSO 3/WK FOR 4 WK (STUDY DURATION: 61 WK)
  carcinogen call: inactive; negative
Species: RAT, Strain/Sex: STRAIN-CD/FEMALE, Route: INTRAPERITONEAL, Dose: 0, 67 UMOL/KG/BW IN 25 UMOL/ML DMSO 3/WK FOR 4 WK (TOTAL DOSE: 0; 119 UMOL) ADMINISTERED TO WEANLING RATS (STUDY DURATIO, Dose: 0, 67 UMOL/KG/BW IN 25 UMOL/ML DMSO 3/WK FOR 4 WK (TOTAL DOSE: 0; 119 UMOL) ADMINISTERED TO WEANLING RATS (STUDY DURATIO
  carcinogen call: inactive; negative
Species: RAT, Strain/Sex: STRAIN-CD/FEMALE, Route: INTRAPERITONEAL, Dose: 0, 100 UMOL/KG BW IN DMSO 1/WK FOR 4 WK (STUDY DURATION: 90 WK), Tumor Site: Type of Lesion: MAMMARY GLAND: ADENOCARCINOMA
  carcinogen call: active; positive
Species: RAT, Strain/Sex: STRAIN-CD/FEMALE, Route: INTRAPERITONEAL, Dose: 0, 100 UMOL/KG/BW IN 70 UMOL/ML DMSO 1/WK FOR 4 WK (TOTAL DOSE: 0; 77.3 UMOL) ADMINISTERED TO WEANLING RATS (STUDY DURAT, Dose: 0, 100 UMOL/KG/BW IN 70 UMOL/ML DMSO 1/WK FOR 4 WK (TOTAL DOSE: 0; 77.3 UMOL) ADMINISTERED TO WEANLING RATS (STUDY DURAT, Tumor Site: Type of Lesion: MAMMARY GLAND: ADENOCARCINOMA
  carcinogen call: active; positive
Species: RAT, Strain/Sex: STRAIN-CD/FEMALE, Route: SUBCUTANEOUS, Dose: 0, 6.3 UMOL (TOTAL DOSE) ADMINISTERED OVER 8 WK BEGINNING ON DAY OF BIRTH (STUDY DURATION: 67 WK), Tumor Site: Type of Lesion: MAMMARY GLAND: TUMOR
  carcinogen call: active; positive
Species: RAT, Strain/Sex: STRAIN-CD/FEMALE, Route: SUBCUTANEOUS, Dose: 0, 63 UMOL (TOTAL DOSE) ADMINISTERED OVER 8 WK BEGINNING WITHIN 24 HR OF BIRTH (STUDY DURATION: 86 WK), Tumor Site: Type of Lesion: MAMMARY GLAND: TUMOR
  carcinogen call: active; positive
Species: RAT, Strain/Sex: STRAIN-CD/FEMALE, Route: SUBCUTANEOUS, Dose: 0, 100 UMOL/KG BW IN DMSO 1/WK FOR 4 WK (STUDY DURATION: 90 WK), Tumor Site: Type of Lesion: MAMMARY GLAND: FIBROADENOMA
  carcinogen call: active; positive
Species: RAT, Strain/Sex: STRAIN-CD/FEMALE, Route: SUBCUTANEOUS, Dose: 0, 100 UMOL/KG/BW IN 70 UMOL/ML DMSO 1/WK FOR 4 WK (TOTAL DOSE: 0; 74.3 UMOL) ADMINISTERED TO WEANLING RATS (STUDY DURAT, Dose: 0, 100 UMOL/KG/BW IN 70 UMOL/ML DMSO 1/WK FOR 4 WK (TOTAL DOSE: 0; 74.3 UMOL) ADMINISTERED TO WEANLING RATS (STUDY DURAT, Tumor Site: Type of Lesion: MAMMARY GLAND: FIBROADENOMA
  carcinogen call: active; positive
Species: RAT, Strain/Sex: STRAIN-CD/FEMALE, Route: SUBCUTANEOUS, Dose: 50, 100 UMOL/KG IN DMSO 1/WK FOR 8 WK, Tumor Site: Type of Lesion: INJECTION SITE: FIBROSARCOMA, MAMMARY GLAND: ADENOCARCINOMA
  carcinogen call: active; positive
Species: RAT, Strain/Sex: STRAIN-CD/MALE, Route: SUBCUTANEOUS, Dose: 50, 100 UMOL/KG IN DMSO 1/WK FOR 8 WK, Tumor Site: Type of Lesion: INJECTION SITE: FIBROSARCOMA
  carcinogen call: active; positive
